Experimental data: patent US11834663B2, “Fibrotic treatment” (Monash University, priority 2015, dated 2023)

What was measured:
[1] = test system: transverse heart sections from Ang II-infused WT mice; experiment: Angiotensin II infusion prevention model: cardiac hypertrophy, fibrosis, ROS and inflammatory markers; assay type: in vivo, mouse; conditions: Ang II + HFI-419, 4 weeks
Protocol: (§1) There are 8 different sets of in vivo experiments in this study: • A) Phenotypic characterisation of the heart and blood vessels in global IRAP knockout mice and their WT controls treated for 4 weeks with Angiotensin (Ang) II (800 ng/kg/min; s.c.) where mouse hearts and blood vessels were compared to tissue obtained from young WT and IRAP^−/− mice treated with saline. • B) Prevention of Ang II-induced changes in the cardiovascular system following IRAP inhibitor treatment. In the prevention model, WT mice were treated with Ang II (800 ng/kg/min; s.c.)±the IRAP inhibitor (HFI-419; 500 ng/kg/min for 28 days) or HFI-vehicle (1 DMSO:3 HBC). • C) Phenotypic characterisation of the aged heart, kidney and blood vessels in the global IRAP knockout mice where aged WT and IRAP^−/− mouse hearts, kidneys and blood vessels were compared to tissue obtained from young WT and IRAP^−/− mice. • D) Reversal of the age-induced changes in the cardiovascular system following IRAP inhibitor treatment. In the reversal model, aged WT mice were treated with either saline, IRAP inhibitor (HFI-419 at 500 ng/kg/min; compound 1 at 500 ng/kg/min; compound 2 at 50 ng/kg/min) or HFI-vehicle (1 DMSO: 3 HBC) for 4 weeks. • E) Prevention of ischemic-reperfusion injury in isolated hearts taken from aged global IRAP knockout mice and aged IRAP inhibitor (HFI-419 at 500 ng/kg/min; s.c.) treated WT mice compared to age-matched vehicle-treated (1 DMSO:3 HBC; s.c.) WT controls. • F) Phenotypic characterization of cardiac function using echocardiography in the aged global IRAP knockout mice compared to aged and young WT mice. • G) Phenotypic characterization of liver steatosis in IRAP knockout mice in a high fat diet (HFD) model. • H) Reversal of the salt-induced fibrosis in the liver following IRAP inhibitor treatment.
To measure collagen deposition, frozen sections of heart, kidney or aorta (all 5 μm thickness) were air dried for 10 minutes and were brought through 3 times xylene (2 minutes each), and 3 times absolute alcohol washes before being rinsed in tap H2O for 30 seconds. Staining with an optimal concentration of picrosirius red (in this instance 0.05% picrosirius red diluted in saturated picric acid) was performed and left for an hour. Sections were then rinsed in water and differentiated in 0.01 M HCl for 2 minutes, followed by dehydration via 3 times absolute alcohol washes. Then, slides were brought through 3 times xylene washes before being cover slipped according to standard histological techniques using DPX as the mounting medium. Images were taken under ×20 magnification, using bright field (Olympus, BX51) and circularized polarized light microscopy (DM IRB, Leica) while percentage of positive interstitial collagen staining per total field of view was quantified using ImageJ 1.46 software (Java, NIH), and averaged out from a total of eight views as the final percentage collagen content in a particular animal.
Ventricular weight (VW) was compared to the body weight (BW) as a ratio of VW:BW (mg/g), as well as comparison of VW to tibial length (TL) in as a ratio of VW:TL (mg/mm) respectively. The hearts that were embedded in OCT and frozen were transversely sectioned in a cryostat at 5 μm thickness, and stained with Hematoxylin and Eosin (Amber Scientific) for morphological examination of cell structure. The average of 100 cardiomyocytes per heart section was performed under 60× magnification and analyzed using Image J.
Immunostaining was performed on either 5 μm thick transverse frozen heart sections or 5 μm thick frozen thoracic aortic. These sections were air dried and fixed in ice-cold acetone for approximately 15 minutes before washing with 0.01M PBS buffer (3×10 minutes). Sections were then incubated with 10% goat serum in 0.01M PBS for 30 minutes to reduce non-specific binding. […]

[2] = test system: isolated hearts from aged WT mice; experiment: Ischemic-reperfusion injury in isolated Langendorff hearts from chronically treated aged WT mice; assay type: in vivo, mouse
Protocol: as §1
Mice were injected with heparin (500 IU) 20 min before death by cervical dislocation. The heart was rapidly excised and immersed in ice-cold physiological saline solution (PSS). Under a dissecting microscope, the heart and aortic arch were cleared of loose tissue, the pulmonary vein perforated to permit free perfusion of the heart and the heart was mounted on a Langendorff apparatus (ML870B2, ADInstruments, Bella Vista, NSW, Australia) via a 20 gauge needle. The heart was continuously perfused with pre-warmed PSS containing (mM): NaCl 118; KCl 4.7; NaHCO3 25; glucose 11; KH2PO4 1.2; MgSO4 1.2; CaCl2) 1.2 mM and gassed with O2 95% and CO2 5% (carbogen) at 37° C. Prior to use, the PSS was filtered through a 0.22 μm cellulose acetate filter (Millipore). The heart perfusion chamber was surrounded by thermostatically controlled water jacket system that maintained the temperature at 37° C. A fine, 200 μm cannula was present in the PSS line for drug delivery (1:10 drug dilution and with a time lag of 1 min to the heart). A Millar pressure cathether (Millar instruments Inc.) was introduced into the left ventricle via a puncture at the junction of the left atrium and ventricle, and connected to a Power lab system (ADInstruments). […] Left ventricular developed pressure (LVDP); end diastolic pressure (EDP), heart rate (HR), left ventricular contractility (+dP/dt) and left ventricular relaxation (−dP/dt) and coronary flow were recorded continuously.
Ischemia was induced by halting perfusion of the heart for 40 min. […] Left ventricular developed pressure (LVDP), end diastolic pressure (EDP) and contractility (±dP/dt) were recorded during the 60 min. […]

## CCOC(=O)C1=C(NC(C)=O)Oc2cc(O)ccc2C1c1cccnc1 (centres unmarked) [HFI-419]
[1]; FIG. 5a
  Ang II-mediated increase in cardiac hypertrophy (cardiomyocyte cross-sectional area, H&E): prevented
[1]; FIG. 5b
  interstitial collagen expression in heart (picrosirius red, brightfield): significantly decreased
[1]; FIG. 6
  protein expression of TGF-β1 in heart (western blot): decreased
  vimentin staining in heart (marker for fibroblast expression): no change
  α-SMA staining in heart (marker for myofibroblast expression): decreased
[1]; FIG. 7
  Ang II-induced increase in cardiac superoxide generation (DHE): prevented
  ICAM-1 expression and protein content in heart: decreased
  MCP-1 expression in heart: decreasing
  P-IκBα expression in heart: decreased
  expression of NOX-2 in heart: no effect
  macrophage (F4/80) expression in heart: decreasing
[1]; immunofluorescence, FIG. 6
  perivascular expression of TGF-β1 in heart: decreased
[2]; 40 min ischemia / 60 min reperfusion, aged WT mice treated with HFI-419 for 4 weeks, FIG. 20a
  reduction in infarct area compared to the aged WT control: ~50%
[2]; aged WT mice, HFI-419 4 weeks
  recovery of LVDP in the first 10 minutes of reperfusion: did not affect
[2]; evident from 20 min of reperfusion, aged WT mice, HFI-419 4 weeks, FIG. 20b
  recovery of LVDP in latter stages of reperfusion: significant improvement
[2]; evident from 20 min of reperfusion, aged WT mice, HFI-419 4 weeks, FIG. 20c,d
  recovery of LV±dP/dt in latter stages of reperfusion: significant improvement
[2]; pre-ischemic baseline, aged WT vehicle vs HFI-419 treated
  HR, LVDP or LVEDP at baseline: no difference
